Reference: patent US20240199555A1, “APPLICATIONS OF BIASED LIGANDS OF THE SEROTONIN 5-HT7 RECEPTOR FOR THE TREATMENT OF PAIN, MULTIPLE SCLEROSIS AND THE CONTROL OF THERMOREGULATION” (Centre National de la Recherche Scientifique, priority 2021, published 2024)

Tests used:
human 5-HT7a receptor = human 5-HT7a receptor (Homo sapiens (Human), UniProt P34969); experiment: Radioligand binding competition, filtration binding assay, 5-HT7a; details: affinity on 5-HT7 receptor, table of new compounds
h5-HT7R = h5-HT7R (Homo sapiens (Human), UniProt P34969); experiment: ERK1/2 and c-SRC phosphorylation by western blot in HEK-293 cells stably expressing h5-HT7R; format: cell-based
h5-HT7R, sequence (P34969 1-432): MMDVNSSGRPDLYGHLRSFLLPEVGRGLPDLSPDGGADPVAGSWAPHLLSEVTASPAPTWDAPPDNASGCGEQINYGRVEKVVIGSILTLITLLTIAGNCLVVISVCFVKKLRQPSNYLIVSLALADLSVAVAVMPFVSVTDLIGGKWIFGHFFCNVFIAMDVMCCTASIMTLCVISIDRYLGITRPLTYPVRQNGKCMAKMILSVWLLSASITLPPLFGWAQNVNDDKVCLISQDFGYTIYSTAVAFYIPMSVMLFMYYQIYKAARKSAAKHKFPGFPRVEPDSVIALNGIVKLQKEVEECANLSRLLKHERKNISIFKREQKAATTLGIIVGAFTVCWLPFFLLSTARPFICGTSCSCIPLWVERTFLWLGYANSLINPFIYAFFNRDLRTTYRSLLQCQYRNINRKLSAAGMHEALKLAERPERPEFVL
Experimental: (A, B, C, D, E, F) Time course of activation of ERK1/2 after stimulation of HEK-293 cells stably expressing h5-HT7R with various 5-HT7R ligands used at 10 μM. The cells were stimulated for the indicated periods and assayed for detection of phospho ERK1/2 by western blot analysis. […] Representative blots of three independent experiments are illustrated. The histogram on the right of each panel represents the results of densitometric analyses of three independent experiments. Data are means±SEM. * p<0.05; ** p<0.01; *** p<0.001 versus non stimulated cells (NS).
HEK-293 cells stably expressing h5-HT7R were stimulated with increasing concentrations of 5-CT or Serodolin for 7 minutes. Cells were lysed, and western blot analysis was performed. Representative Western blots from three independent experiments were shown in A-C. Quantification was performed by densitometric analyses from three independent experiments. Analyzed data were plotted versus log concentration for each compounds (A; B) or as bar graph (C) on the right panel.
Time course of activation of ERK1/2 after stimulation of HEK-293 cells stably expressing h5-HT7R with JLB060, a 5-HT7R ligand used at 10 μM. The cells were stimulated for the indicated periods and assayed for detection of phospho ERK1/2 by western blot analysis.
(§1) Treated cells were washed twice with cold PBS and lysed on ice for 30 min in lysis buffer containing 50 mM Tris pH 7.5, 150 mM NaCl, 10 mM EDTA, 1% Triton X-100 and the protease inhibitor cocktail. Cell lysates were centrifuged at 10,000×g for 10 min. Supernatant was then solubilized in Laemmli buffer with 0.1% β-mercaptoethanol. Samples were resolved by electrophoresis on 10% SDS-PAGE, and transferred electrophoretically to polyvinylidene fluoride (PVDF) membranes (GE Healthcare Life Sciences). […] membranes were washed in Tris-buffered saline (TBS; pH 7.4) containing 0.1% Tween-20 (TBS-T; 0.1%) and blocked with 5% (w/v) dry milk TBS-T 0.1% for 30 min. […] Blots were probed with anti-arrestin, anti-Phospho-ERK or anti-ERK antibody (1:2000), anti Phospho-SRC, anti SRC antibody, anti-HA or anti-GFP or anti-actin antibodies. Horseradish-peroxidase-conjugated goat anti-rabbit, anti-mouse or anti-rat antibodies (1:33,000) were used as secondary antibodies. Immunoreactive bands were detected using the Dura detection kit. Protein quantification on blots was performed using Quantity One software (Biorad).
as §1, with “12%” for “10%”, “with” for “with anti-arrestin,”, “anti-Phospho-ERK (1:2000)” for “anti-Phospho-ERK”, “anti-GAPDH” for “anti-ERK”, “(1:5000). […]” for “(1:2000), anti Phospho-SRC, anti SRC antibody, anti-HA or anti-GFP or anti-actin antibodies. Horseradish-peroxidase-conjugated goat anti-rabbit, anti-mouse or anti-rat antibodies (1:33,000) were used as secondary antibodies.”
ERK phosphorylation was monitored by western blotting after treatment of cells with 10 μM of ligands at different times ranging from 2 to 60 minutes.

human 5-HT7a receptor, sequence (P34969 other isoform, or with tags, fused parts or gaps): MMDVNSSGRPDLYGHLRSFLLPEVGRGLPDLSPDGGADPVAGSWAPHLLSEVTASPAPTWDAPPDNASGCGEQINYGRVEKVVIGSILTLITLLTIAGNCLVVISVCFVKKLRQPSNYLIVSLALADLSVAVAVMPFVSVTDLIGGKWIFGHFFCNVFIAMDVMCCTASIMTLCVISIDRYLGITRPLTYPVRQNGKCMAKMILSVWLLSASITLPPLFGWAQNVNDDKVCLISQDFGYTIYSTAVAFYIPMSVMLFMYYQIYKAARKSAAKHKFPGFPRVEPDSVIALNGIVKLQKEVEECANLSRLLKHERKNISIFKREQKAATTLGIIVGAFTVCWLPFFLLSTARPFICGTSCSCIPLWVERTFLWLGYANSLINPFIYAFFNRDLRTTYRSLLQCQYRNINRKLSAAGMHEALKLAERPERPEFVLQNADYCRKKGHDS

Structure (SMILES): O=c1[nH]c2ccccc2n1CN1CCN(c2ccc(F)cc2)CC1 [Serodolin]
- IC50 (human 5-HT7a receptor): 1.14 nM
- Ki (human 5-HT7a receptor): 0.8 nM
- induction of ERK phosphorylation (h5-HT7R; 10 μM of ligand or increasing concentrations, western blot): concentration-dependent increase of ERK phosphorylation
- ERK phosphorylation at the maximal effect (h5-HT7R; 10 μM of ligand, 2 to 60 minutes): 409±34 % of control
- phosphorylation of c-SRC kinase at Tyr416 (h5-HT7R; western blot, 7 minutes): induced only after activation of 5-HT7R by Serodolin
